Measurements from the supplement of paper PMC10627819.

Tests used:
Test in all cases: fitness (endpoint OD595 vs no drug) (fraction); higher = more growth
[1] = system: B. subtilis 168
Outline: (§1)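 Each well of a 384-well plate received 30 µl of culture at OD595 0.01, or 55 µl for S. pneumoniae. TSB, LB Lennox or CY served as media at 37 °C. OD595 was taken every 30 min for 14 h and corrected by subtracting the first reading. Fitness is the optical density at stationary-phase entry divided by the robust mean of no-drug controls, capped at 1.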

[2] = system: S. aureus DSM 20231
Outline: as §1

[3] = system: S. pneumoniae D39V
Outline: as §1

[4] = system: S. aureus Newman
Outline: as §1

N[C@@H]1CONC1=O [Cycloserine D] + COc1cc(Cc2cnc(N)nc2N)cc(OC)c1OC [Trimethoprim]
fitness, [1], one replicate
Settings | partner 0.1 µg/mL | partner 0.2 µg/mL | partner 0.4 µg/mL | partner 1 µg/mL | partner 2 µg/mL
first compound 0.125 µg/mL | 0.917 | 0.789 | 0.584 | 0.344 | 0.268
first compound 0.25 µg/mL | 0.849 | 0.757 | 0.56 | 0.323 | 0.243
first compound 0.5 µg/mL | 0.986 | 0.818 | 0.533 | 0.358 | 0.234

fitness
Settings | partner 0.125 µg/mL | partner 0.25 µg/mL | partner 0.5 µg/mL | partner 1 µg/mL
[1], first compound 0.125 µg/mL | 0.635 | 0.501 | 0.475 | –
[1], first compound 0.25 µg/mL | 0.664 | – | 0.48 | –
[1], first compound 0.5 µg/mL | 0.664 | – | 0.511 | –
[2], first compound 0.375 µg/mL | 0.758 | – | – | 0.0316
[2], first compound 0.75 µg/mL | 0.807 | 0.61 | – | 0.0296
[2], first compound 1.5 µg/mL | 0.804 | 0.569 | – | 0.0385

C/C(=C\C(=O)OCCCCCCCCC(=O)O)C[C@@H]1OC[C@H](C[C@@H]2O[C@H]2[C@@H](C)[C@H](C)O)[C@@H](O)[C@H]1O [Pseudomonic acid] + CCN(CC)CCOC(=O)c1ccc(N)cc1 [Procaine]
fitness, [3]
Settings | first compound 0.03 µg/mL | first compound 0.06 µg/mL | first compound 0.12 µg/mL
partner 85.5 µg/mL | 0.867 | 0.69 | 0.587
partner 171 µg/mL | 0.92 | 0.762 | 0.581
partner 342 µg/mL | 0.878 | 0.716 | 0.583

fitness, [4], one replicate
Settings | first compound 0.0313 µg/mL | first compound 0.0625 µg/mL | first compound 0.125 µg/mL
partner 85.5 µg/mL | 0.0858 | 0.046 | 0.0525
partner 171 µg/mL | 0.0636 | 0.045 | 0.0572
partner 342 µg/mL | 0.0723 | 0.0522 | 0.0551

O=C(N[C@H](CO)[C@H](O)c1ccc([N+](=O)[O-])cc1)C(Cl)Cl [Chloramphenicol] + CO/N=C(\C(=O)N[C@@H]1C(=O)N2C(C(=O)O)=C(COC(N)=O)CS[C@H]12)c1ccco1 [Cefuroxime]
fitness, [4], one replicate
Settings | first compound 0.75 µg/mL | first compound 1.5 µg/mL | first compound 3 µg/mL
partner 0.04875 µg/mL | 0.808 | 0.377 | –
partner 0.0975 µg/mL | 0.697 | 0.312 | 0.0949
partner 0.195 µg/mL | 0.64 | 0.206 | 0.065

N[C@@H]1CONC1=O [Cycloserine D] + CN[C@@H]1[C@H](O[C@H]2[C@H](O[C@H]3[C@H](O)[C@@H](O)[C@H](N=C(N)N)[C@@H](O)[C@@H]3N=C(N)N)O[C@@H](C)[C@]2(O)C=O)O[C@@H](CO)[C@H](O)[C@H]1O [Streptomycin]
fitness
Settings | first compound 0.125 µg/mL | first compound 0.25 µg/mL | first compound 0.375 µg/mL | first compound 0.5 µg/mL | first compound 0.75 µg/mL | first compound 1.5 µg/mL
[1], partner 2 µg/mL | 0.931 | 0.937 | – | 0.982 | – | –
[1], partner 8 µg/mL | 0.0826 | 0.0554 | – | 0.074 | – | –
[4], partner 1 µg/mL | – | – | 0.984 | – | 0.985 | 0.978
[4], partner 2 µg/mL | – | – | 0.976 | – | 0.93 | 0.941

O=C(N[C@H](CO)[C@H](O)c1ccc([N+](=O)[O-])cc1)C(Cl)Cl [Chloramphenicol] + CN(C)[C@@H]1C(O)=C(C(N)=O)C(=O)[C@@]2(O)C(O)=C3C(=O)c4c(O)ccc(Cl)c4[C@@](C)(O)[C@H]3C[C@@H]12 [Chlortetracycline]
[2], partner 0.006 µg/mL, one replicate
Settings | fitness
first compound 0.75 µg/mL | 0.62
first compound 1.5 µg/mL | 0.558

fitness, [2]
Settings | first compound 0.75 µg/mL | first compound 1.5 µg/mL | first compound 3 µg/mL
partner 0.012 µg/mL | 0.476 | – | 0.0949
partner 0.024 µg/mL | 0.288 | – | 0.0799
partner 0.048 µg/mL | – | 0.127 | 0.0661

C/C(=C\C(=O)OCCCCCCCCC(=O)O)C[C@@H]1OC[C@H](C[C@@H]2O[C@H]2[C@@H](C)[C@H](C)O)[C@@H](O)[C@H]1O [Pseudomonic acid] + COc1c(N2C[C@@H]3CCCN[C@@H]3C2)c(F)cc2c(=O)c(C(=O)O)cn(C3CC3)c12 [Moxifloxacin]
fitness, [3]
Settings | partner 0.0037 µg/mL | partner 0.005 µg/mL | partner 0.0075 µg/mL | partner 0.01 µg/mL | partner 0.015 µg/mL | partner 0.02 µg/mL
first compound 0.03 µg/mL | 0.635 | 0.929 | 0.839 | 0.975 | 0.806 | 0.982
first compound 0.06 µg/mL | 0.49 | 0.834 | 0.715 | 0.876 | 0.692 | 0.869
first compound 0.12 µg/mL | 0.357 | 0.609 | 0.534 | 0.662 | 0.539 | 0.671

fitness, [4], one replicate
Settings | first compound 0.0313 µg/mL | first compound 0.0625 µg/mL | first compound 0.125 µg/mL
partner 0.0075 µg/mL | 0.0642 | 0.025 | 0.0349
partner 0.015 µg/mL | 0.0514 | 0.0242 | 0.0408
partner 0.03 µg/mL | 0.0387 | 0.0144 | 0.0169

N[C@@H]1CONC1=O [Cycloserine D] + CC(C1CCC(C(O1)OC2C(CC(C(C2O)OC3C(C(C(CO3)(C)O)NC)O)N)N)N)NC [Gentamicin]
main component drawn
Settings | fitness
[1], first compound 0.125 µg/mL, partner 0.0625 µg/mL | 0.964
[1], first compound 0.125 µg/mL, partner 0.25 µg/mL | 0.102
[1], first compound 0.25 µg/mL, partner 0.0625 µg/mL | 0.943
[1], first compound 0.25 µg/mL, partner 0.25 µg/mL | 0.0775
[1], first compound 0.5 µg/mL, partner 0.0625 µg/mL | 0.914
[1], first compound 0.5 µg/mL, partner 0.25 µg/mL | 0.0653
[4], first compound 0.375 µg/mL, partner 0.375 µg/mL | 0.986
[4], first compound 0.375 µg/mL, partner 0.5 µg/mL | 0.923
[4], first compound 0.375 µg/mL, partner 0.75 µg/mL | 0.974
[4], first compound 0.375 µg/mL, partner 1 µg/mL | ≥ 1
[4], first compound 0.375 µg/mL, partner 1.5 µg/mL | 0.955
[4], first compound 0.375 µg/mL, partner 2 µg/mL | ≥ 1
[4], first compound 0.75 µg/mL, partner 0.375 µg/mL | ≥ 1
[4], first compound 0.75 µg/mL, partner 0.5 µg/mL | 0.921
[4], first compound 0.75 µg/mL, partner 0.75 µg/mL | ≥ 1
[4], first compound 0.75 µg/mL, partner 1 µg/mL | ≥ 1
[4], first compound 0.75 µg/mL, partner 2 µg/mL | ≥ 1
[4], first compound 1.5 µg/mL, partner 0.375 µg/mL | 1
[4], first compound 1.5 µg/mL, partner 0.5 µg/mL | 0.952
[4], first compound 1.5 µg/mL, partner 0.75 µg/mL | ≥ 1
[4], first compound 1.5 µg/mL, partner 1 µg/mL | ≥ 1
[4], first compound 1.5 µg/mL, partner 2 µg/mL | ≥ 1
